Data published in patent US20100144854A1 (priority 2007, published 2010).

How the values were obtained:
Format in all cases: in vivo, human
[1] = system: primary generalized amyloidosis; assay: Example 10: patient with primary generalized amyloidosis treated with rhodamine 6G; conditions: Patient T, 67
Text: Patient T. Diagnosis: Ischemic heart disease: Atherosclerosis, cardiosclerosis, atrial fibrillation. Amyloidosis? On account of deterioration in the patient's condition (increased frequency of dyspnea) the patient was hospitalised. On admission the patient's overall condition was fairly serious. Skin and visible mucous membranes normal colour, moderately cyanosed lips. Heart sounds—muffled, arrhythmia—atrial fibrillation with frequency of ventricular contractions 110 beats/min (pulse deficiency 12), blood pressure 100/60 mm Hg. In left lung, dull percussion sound below the middle of the shoulder blade; no breathing detected above this region. Individual moist rales heard to the right in the projection of the lower lobe. Diseased liver, lower edge extending 4 cm below the level of the costal margin. Edema of the legs as far as middle third of femur and anasarca were diagnosed.
Low voltage waves recorded on ECG, taxistological shape of atrial fibrillation, QS in leads V1-V4. […] Disturbed diastolic relaxation of myocardium of left ventricle was noted. […] In the biochemical blood analysis the level of total protein was reduced (down to 50 g/l), while the levels of urea (to 9.66 mmol/l) and creatinine (to […]) were both raised. […] Ultrasound investigation of organs of the abdominal cavity: enlarged liver (right lobe—16.9 cm), echogenicity reduced, and irregular structure; portal vein−15 mm. Gall bladder: 52×22 mm, wall up to 4 mm, unobstructed lumen. Pancreas: uniform, echogenicity raised, focalized diffuse changes. […] Calyculate-pelvic system of both kidneys not enlarged. Fogging of the lung pattern and diffuse changes were observed on an anterioposterior chest X-ray. A needle liver biopsy was performed in order to exclude amyloidosis. Signs of primary amyloidosis were detected. […] 5% suppositories in the rectum at night. Treatment according to this regimen was continued for 2 months. […] Intravenous administration twice a week. The course of treatment lasted 2 months. […] The liver and kidneys were normal size on an ultrasound scan.

[2] = system: Adenocarcinoma of the prostate; assay: Example 7: patient with prostate adenocarcinoma treated with rhodamine 6G; conditions: Patient Sh., 55
Procedure: The patient presented complaining of a sharp pain when urinating and of retention and reddish color of the urine. On examination: Ultrasound scan—prostate approximately 85 cm^3, tumor with irregular contours, 34×40 mm^2 in size. PSA-49.9 […].
Needle biopsy—adenocarcinoma of the prostate.
Diagnosis: Adenocarcinoma of the prostate. The patient refused surgical intervention and chemotherapy.
At night a suppository containing 2% of the preparation was administered.

amyloidosis = assay: Example 1: patient with amyloidosis treated with rhodamine 6G; conditions: Patient V
Procedure: Patient V. Diagnosis: amyloidosis. The patient felt lethargic and “under the weather”. […] The first course of treatment with the preparation consisted of 15 drops of a 1% solution in a glass of water three times a day by mouth, at the evening meal in addition a microenema of 10 drops of a 1% solution in 30 ml of water, and at night a 1% suppository containing the preparation. […] By the third week after the start of treatment the patient's condition had improved. In the words of relatives, the patient was “feeling better”. […] Blood analyses against the treatment background were normal.

[3] = system: Melanoma of the left lower leg; assay: Example 11: patient with melanoma treated with 5% rhodamine 6G ointment; conditions: Patient Sh., 75
[4] = system: Recurring cancer of the right ovary; assay: Example 8: patient with recurring ovarian cancer treated with rhodamine 6G enema; conditions: Patient T, 52; third day after start; enema 5 g per day
Procedure: In connection with the detection of carcinoma of the left ovary the patient underwent a hysterectomy.
After the operation the patient was given a 2-year course of chemotherapy. The patient subsequently complained of pain in the rectum and tenesmus.
Diagnosis: Recurring cancer of the right ovary.
In view of the ineffectiveness of continuing the chemotherapy, the patient was treated with the preparation in the form of an enema.

9-(2-ethoxycarbonyl)phenyl)-3,6-bis(ethylamino)2,7-dimethylxanthyl chloride [rhodamine 6G]
condition of the patient ([1]; 5 g in 250 ml water three times a day, 5% suppositories, 2 months): gradually improved | size of the heart, echocardiogram ([1]; after oral/rectal 2 months and 2 g i.v. twice a week 2 months): reduced | blood and urine analyses ([1]; after treatment): in the normal range | dilation of the left and right atria, echocardiogram ([1]; after treatment): significantly reduced | fibrillation on the EKG ([1]; after treatment): no fibrillation | liver and kidneys, ultrasound scan ([1]; after treatment): normal size | patient's complaints ([1]; after treatment): no complaints | voltage waves on the EKG ([1]; after treatment): in the normal range | pain experienced on urination ([2]; 40 days powder oral and 2% suppository): decreased in intensity | decrease of size of the prostate, ultrasound ([2]; after 40 days, before approximately 85 cm^3): 40% | recurrence of the cancer ([2]; over 2 years): No recurrence | prostate size, ultrasound ([2]; subsequent examination after further 2 weeks oral and enemas): approximately 35 cm^3 | PSA ([2]; subsequent examination, before 49.9 ng/mL): 1 ng/mL | blood analyses against the treatment background (amyloidosis): normal | patient's condition (amyloidosis; 73, first week, 1% solution oral, microenema, 1% suppository): basically no change | patient's condition (amyloidosis; one year after treatment): significantly improved | patient's condition (amyloidosis; third week after start of treatment): improved | amyloid foci in the brain, CT scan (amyloidosis; three months after start of treatment): reduction of amyloid foci in the brain | decrease of sizes of the tumors ([3]; 5% ointment, over 2 months, before 5×7×9 cm): 70% | recurrence of the melanoma ([3]; over 3 years): no recurrence | severity of the pain [4]: decreased
